Experimental data taken from PMC6164518 (Marine Drugs, 2018).

Key:
in vitro = conditions: human
Experimental: Thus, to verify the hepatotoxicity of 1 and 12j, a 3-(4,5-dimethylthiazol-2-yl)-2,5-diphenyltetrazolium bromide (MTT) assay on the human hepatoma cell line (HepG2) was carried out.
The cytotoxicity of selected compounds was evaluated on HepG2 cells. Cells were inoculated into 96-well plates. After incubation for 24 h, the cells were treated with different concentrations of tested compounds for 24 h, and then were incubated with 10 μL of 3-(4,5-dimethylthiazol-2-yl)-2,5-diphenyltetrazolium bromide (MTT) at 37 °C for 2 h. The formazan dye product was measured by the absorbance at 490 nm on a Tecan Spark multimode microplate reader.

Aβ1–42 = target: T1, Aβ1–42 (Homo sapiens, UniProt P05067); assay: Inhibition of self-induced Aβ1–42 aggregation (ThT fluorescence); type: biochemical; conditions: Aβ1–42 2.5 µM, compound 10 µM; mean ± SD of three experiments
T1 construct: pre-treated Aβ1–42 (GL Biochem Ltd., Shanghai, China) was dissolved in DMSO; purchased GL Biochem Ltd., Shanghai, China
T1 sequence (P05067 672-713 limits assumed): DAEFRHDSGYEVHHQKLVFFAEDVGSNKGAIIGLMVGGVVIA
Experimental: In order to investigate the inhibition of compounds on Aβ1–42 self-aggregation, a ThT-based fluorometric assay was performed. 1,1,1,3,3,3-hexafluoro-2-propanol (HFIP) pre-treated Aβ1–42 (GL Biochem Ltd., Shanghai, China) was dissolved in DMSO to make a 200 µM stock solution. The stock solution was centrifuged at the speed of 13,500 rpm for 10 min. The above supernatant was used for experiments. The tested compounds were dissolved in DMSO at concentrations of 0.8 mM. A screening assay for the tested compounds to inhibit A aggregation was performed by measuring ThT fluorescence emission. Compounds (2 µL) and 2 µL of 200 µM Aβ1–42 were added into 76 µL of phosphate-buffered saline (PBS at pH 7.4) in a 96-well plate. After incubation for 24 h at room temperature, 80 µL of 5 µM of ThT solution (in 50 mM of glycine-NaOH at pH 8.5) was added to the reaction solution. Fluorescence emission was measured at 490 nm with an excitation wavelength of 450 nm on a Tecan Spark multimode microplate reader. […] The fluorescence intensities were compared, and the % inhibition was calculated by the following equation: 100 − [(Fi − Fb)/(Fo − Fb) × 100], where Fi, Fo and Fb are the fluorescence intensities obtained for Aβ aggregation in the presence of inhibitors Aβ1–42 and ThT; in the presence of Aβ1–42 and THT but no inhibitors; and the blanks containing ThT only.

AChE = tested on: AChE; parameters: method as in PMID 24547899; conditions: read-out: AChE IC50 (reported value); cited from earlier work
Electric eel AChE = target: T2, Electric eel AChE (Electrophorus electricus, UniProt O42275); assay: biochemical; conditions: AChE from electric eel; mean ± SD from three separate experiments; read-out: IC50 EeAChE
T2 construct: purchased Sigma-Aldrich (Steinheim, Germany)
T2 sequence (O42275 24-633): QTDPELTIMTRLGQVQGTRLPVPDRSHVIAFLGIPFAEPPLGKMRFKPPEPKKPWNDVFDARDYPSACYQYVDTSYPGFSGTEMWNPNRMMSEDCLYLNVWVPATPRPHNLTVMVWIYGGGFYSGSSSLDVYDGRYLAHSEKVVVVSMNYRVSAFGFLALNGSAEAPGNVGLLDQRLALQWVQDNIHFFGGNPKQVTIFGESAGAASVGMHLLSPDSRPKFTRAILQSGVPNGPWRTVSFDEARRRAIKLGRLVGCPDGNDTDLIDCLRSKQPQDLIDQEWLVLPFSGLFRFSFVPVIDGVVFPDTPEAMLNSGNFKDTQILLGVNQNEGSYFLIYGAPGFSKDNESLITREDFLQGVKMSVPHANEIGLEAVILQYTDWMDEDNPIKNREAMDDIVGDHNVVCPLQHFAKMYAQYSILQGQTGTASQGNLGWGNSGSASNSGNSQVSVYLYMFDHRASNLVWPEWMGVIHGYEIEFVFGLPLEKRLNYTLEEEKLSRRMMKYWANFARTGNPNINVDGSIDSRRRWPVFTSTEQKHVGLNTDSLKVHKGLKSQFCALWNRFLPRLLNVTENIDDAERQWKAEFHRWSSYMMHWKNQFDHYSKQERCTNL
Experimental: (§1) The AChE and BChE inhibitory activities of compounds were determined by using a slightly modified Ellman’s method. Electric eel AChE, equine serum BChE, 5,5′-dithiobis(2-nitrobenzoic acid) (DTNB), phosphate buffer solution (PBS, pH 8.0), acetylthiocholine (ATC) iodide, and butyrylthiocholine (BUC) iodide were purchased from Sigma-Aldrich (Steinheim, Germany). […] Enzyme solutions were prepared at 2.0 U/mL in 2-mL aliquots. The assay medium consisted of 10 μL of enzyme, 40 μL of PBS, 20 μL of 0.01 M DTNB, and 10 μL of tested compound. Assayed solutions of tested compounds were pre-incubated with corresponding ChE for 5 min. The reaction was initiated by the addition of 20 μL of 0.01 M substrate (ATC or BUC). The activity was determined by measuring the increase in absorbance at 410 nm at 37 °C in 2-min intervals using Tecan Spark multimode microplate reader (Mannedorf, Switzerland). The percentage of inhibition (I) was calculated from the measured data as follows: I = (Ac − Ai)/Ac × 100%, where Ai and Ac represent the change in the absorbance in the presence of an inhibitor and without an inhibitor, respectively.

equine serum BChE = target: T3, equine serum BChE (Equus caballus, UniProt P81908); assay: biochemical; conditions: BChE from equine serum; mean ± SD from three separate experiments; read-out: IC50 eqBChE
T3 construct: purchased Sigma-Aldrich (Steinheim, Germany); host or cells: equine serum
T3 sequence (P81908 whole entry): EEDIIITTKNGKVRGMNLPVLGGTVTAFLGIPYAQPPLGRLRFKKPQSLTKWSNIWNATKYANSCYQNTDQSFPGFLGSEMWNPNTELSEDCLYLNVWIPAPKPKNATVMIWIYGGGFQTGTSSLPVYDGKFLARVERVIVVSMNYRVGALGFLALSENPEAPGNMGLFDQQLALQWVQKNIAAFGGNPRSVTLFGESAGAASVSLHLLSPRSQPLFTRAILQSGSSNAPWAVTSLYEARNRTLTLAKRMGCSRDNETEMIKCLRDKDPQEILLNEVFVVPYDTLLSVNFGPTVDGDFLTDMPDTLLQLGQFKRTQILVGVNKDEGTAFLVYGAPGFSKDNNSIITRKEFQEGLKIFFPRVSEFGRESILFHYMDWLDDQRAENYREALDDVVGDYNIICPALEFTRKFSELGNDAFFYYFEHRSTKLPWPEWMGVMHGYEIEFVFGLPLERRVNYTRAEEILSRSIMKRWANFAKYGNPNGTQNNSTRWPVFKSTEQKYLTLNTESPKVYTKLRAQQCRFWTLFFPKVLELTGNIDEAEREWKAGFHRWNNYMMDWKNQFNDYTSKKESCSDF
Experimental: as §1

Aβ1–42 and AChE = target: T4, Aβ1–42 and AChE (Electrophorus electricus, UniProt O42275); assay: Inhibition of AChE-induced Aβ1–42 aggregation (ThT fluorescence); type: biochemical; conditions: Aβ1–42 2.5 µM, AChE 0.2 U/mL, compound 8 µM; mean ± SD of three experiments
T4 construct: HFIP pre-treated Aβ1–42 (GL Biochem Ltd., shanghai, China) was dissolved in DMSO; purchased GL Biochem Ltd. (Aβ1–42)
T4 sequence (O42275 24-633): as the sequence (O42275 24-633) above
Experimental: The stock solution was centrifuged at the speed of 13,500 rpm for 10 min. The above supernatant was used for experiments. […] Fluorescence emission was measured at 490 nm with an excitation wavelength of 450 nm on a Tecan Spark multimode microplate reader.

COc1c(Br)cc(CC(=O)NCCCCC[N+](C)(C)C)cc1Br [Compound 1, Pulmonarin B]
IC50 at 24 h (in vitro): > 80 µM | Inhibition of Aβ Aggregation (%) Self-Induced (Aβ1–42): 29.78 ± 1.45% | IC50 (AChE): 36 µM | IC50 (Electric eel AChE): 37 ± 2.11 µM | IC50 (equine serum BChE): 30.7 ± 1.44 µM | Inhibition of Aβ Aggregation (%) AChE-Induced (Aβ1–42 and AChE): 27.60 ± 1.96%
